{"source": "paper PMC7269481", "about": "“ZN148 Is a Modular Synthetic Metallo-β-Lactamase Inhibitor That Reverses Carbapenem Resistance in Gram-Negative Pathogens In Vivo” (Antimicrobial Agents and Chemotherapy, 2020)", "key": {"[1]": {"molecular_target": "T1, NDM-1 (Klebsiella pneumoniae, UniProt C7C422)", "T1 construct": "made in house", "T1 sequence (C7C422 29-270, looked up)": "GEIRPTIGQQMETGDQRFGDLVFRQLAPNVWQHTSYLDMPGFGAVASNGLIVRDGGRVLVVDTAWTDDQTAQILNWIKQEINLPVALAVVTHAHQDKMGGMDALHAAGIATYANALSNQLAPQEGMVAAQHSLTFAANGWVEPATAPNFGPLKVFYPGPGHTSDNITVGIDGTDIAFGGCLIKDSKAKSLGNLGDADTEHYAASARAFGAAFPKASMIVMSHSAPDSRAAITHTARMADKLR", "experiment": "Time-dependent inactivation kinetics of purified NDM-1 (imipenem)", "type": "biochemical", "method": "Protein expression and purification of NDM-1 and VIM-2 were performed as previously described ([36], [43], [57]). Stock solutions of purified NDM-1 and VIM-2 were prepared in 50 mM HEPES buffer (pH 7.5; Merck). Inhibition of NDM-1 and VIM-2 were determined for ZN148 and the analogues ZN222, ZN223, and ZN228 at different concentrations of inhibitor after preincubation times of 2, 8, 15, 25, and 32 min in 50 mM HEPES buffer (pH 7.5) supplemented with 1 μM ZnSO4 (Sigma-Aldrich) and bovine serum albumin (Sigma-Aldrich; final concentration, 2 μg/ml) at 25°C. Concentrations of 1 nM VIM-2 and 30 nM NDM-1 were used, and the reaction was initiated by the addition of 30 μM nitrocefin (Merck) for VIM-2 or 100 μM imipenem (Sigma-Aldrich) for NDM-1. The reaction was measured at 482 nm (VIM-2) or […] (NDM-1) in either standard 96-well plates (Thermo Fisher Scientific) for VIM-2 or UV-transparent 96-well plates (Corning, Kennebunk, ME) for NDM-1 at 25°C in a SpectraMax Plus plate reader (Molecular Devices). All of the enzyme and substrate concentrations indicated are the final concentrations in the assay. The enzyme activity as a percentage was calculated based on the initial velocity and compared to the control without inhibitor compound. All tests were performed at least in duplicates.\nThe observed rate constant (kobs) per inhibitor concentration was calculated from the slope of a semilog plot of the enzyme activity in percent versus preincubation time.\nBy fitting these values, the irreversible kinetic parameters maximum inactivation rate (kinact) and the inhibitor concentration that produces half-maximal rate of inactivation (KI) were obtained. Finally, the inhibitors were characterized by calculating kinact/KI. Where no saturation curve could be observed, KI and kinact were determined from the linear part of plot 1/kobs versus 1/[I]."}, "[2]": {"molecular_target": "T2, VIM-2 (Escherichia coli, UniProt Q5U7L7)", "T2 construct": "made in house", "type": "biochemical", "method": "For reversibility of enzyme activity after incubation with ZN148, 3 ml of VIM-2 or NDM-1 was diluted with or without ZN148 in Chelex HEPES buffer (pH 7.5) and subsequently incubated for 1 h on ice. Then, 2.5 ml of each solution was loaded onto an equilibrated PD-10 column (GE Healthcare, Pittsburgh, PA), washed with 1 ml, and eluted with 1.5 ml of Chelex HEPES buffer (pH 7.5), respectively. Samples spiked and not spiked with inhibitor were diluted to a final enzyme concentration of 1 nM VIM-2 and 3 nM NDM-1. The initial reaction velocity was determined by adding nitrocefin (Merck) for VIM-2 or imipenem (Sigma-Aldrich) for NDM-1 at final concentrations of 50 and 100 μM, respectively. The initial enzyme reactions were recorded at 25°C. Inhibitor and enzyme alone were included as controls. All measurements were performed at least in duplicates. For enzyme restorability, pre- and postcolumn samples were supplemented with ZnSO4 (Sigma-Aldrich) to a final concentration of 100 μM and allowed to incubate for 5 min at 25°C. The initial enzyme velocity was then determined as described above."}, "[3]": {"test_system": "M. morganii co-producing MBLs and class A/D serine carbapenemases", "experiment": "Meropenem MIC, M. morganii co-producing NDM-1 and OXA-48", "type": "cell-based", "conditions": "Morganella morganii; NDM-1 + OXA-48 strain; meropenem alone or with 50µM ZN148", "method": "MICs of carbapenems alone and in combination with inhibitors were determined by broth microdilution according to the Clinical and Laboratory Standards Institute (CLSI) guidelines ([48]) using either premade plates (TREK Diagnostic Systems/Thermo Fisher Scientific, East Grinstead, United Kingdom) with meropenem or in-house-prepared plates with meropenem, imipenem, and doripenem. ZN148 and other inhibitors were tested at a fixed concentration of 50 μM. Cation-adjusted Mueller-Hinton medium (TREK Diagnostic Systems/Thermo Fisher Scientific; Becton Dickinson, Franklin Lakes, NJ) were used as growth medium. The plates were incubated for 20 h at 37°C. ZN148, ZN222, ZN223, ZN228, and TPA were initially tested in combination with meropenem using two indicator strains: NDM-1-producing K. pneumoniae ([49], [50]) and VIM-2-producing P. aeruginosa ([51]). […]"}}}
{"smiles": "CN(C[C@H](O)[C@@H](O)[C@H](O)[C@H](O)CO)C(=O)c1ccc(CN(Cc2ccccn2)Cc2ccccn2)nc1", "note": "[ZN148]", "values": [{"measurement": "kinact", "setting": "[1]", "result": 0.000983, "unit": "s⁻¹"}, {"measurement": "kinact/KI", "setting": "[1]", "result": 3.17, "unit": "M⁻¹ s⁻¹"}, {"measurement": "mode of inhibition", "setting": "[2]", "result": "irreversible"}, {"measurement": "MBL activity restored by addition of exogenous zinc, compared to untreated control", "setting": "[2]; after incubation with inhibitor and its removal (PD-10), 100 μM ZnSO4", "result": "~30", "unit": "%"}]}
{"smiles": "C[C@@H](O)[C@H]1C(=O)N2C(C(=O)O)=C(S[C@@H]3CN[C@H](C(=O)N(C)C)C3)[C@H](C)[C@H]12", "note": "[meropenem]", "values": [{"measurement": "MIC", "setting": "[3]", "result": 8, "unit": "µg/mL"}]}
